Reference: PubChem BioAssay AID1963833 (Molecular Pharmacology Branch, DTP, NCI, 2024)

Test system: 883617-216-R-J1-PDC complex spheroid viability
Assay: Anticancer human tumor 883617-216-R-J1-PDC patient-derived bladder carcinoma cell line growth inhibition [POLQ]
Conditions: for IC50: curve of first compound; for viability, T/C: stronger effect = lower value
How it was run: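 Patient-derived tumour cells were co-cultured with HUVEC and mesenchymal stem cells as multicellular spheroids at 37 °C. They were treated with POLQ inhibitors (novobiocin, ART-558, RP6685) alone or combined with other agents. Top concentrations were at or near clinical Cmax (otherwise 10 microM; SN-38 at 1 microM), decreasing in half-log steps.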
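Note: spheroids exposed to compounds for seven days before readout.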
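Throughout, for viability, T/C: 100% = DMSO vehicle control viability.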

`CC(=O)O[C@H]1C(=O)[C@@]2(C)[C@H]([C@H](OC(=O)c3ccccc3)[C@]3(O)C[C@H](OC(=O)[C@H](O)[C@@H](NC(=O)c4ccccc4)c4ccccc4)C(C)=C1C3(C)C)[C@]1(OC(C)=O)CO[C@@H]1C[C@@H]2O` + Nc1ccc(C#CCN(C(=O)Cc2ncc(C(F)(F)F)cc2C(F)(F)F)c2ccc(F)cc2)nn1 was tested, and the IC50 (second compound 0.0316 µM) was 11.9 nM, the IC50 (second compound 0.1 µM) was 10.5 nM and the IC50 (second compound 0.316 µM) was less than 9.49 nM. The IC50 (second compound 1 µM) was less than 9.49 nM, the IC50 (second compound 3.16 µM) was 10.4 nM and the IC50 (second compound 10 µM) was 11.6 nM. The viability, T/C (second compound 0.0316 µM, first compound 0.00949 µM) was 54.8%, the viability, T/C (second compound 0.0316 µM, first compound 0.03 µM) was 30.9% and the viability, T/C (second compound 0.0316 µM, first compound 0.0949 µM) was 24.9%. The viability, T/C (second compound 0.0316 µM, first compound 0.3 µM) was 22.9%, the viability, T/C (second compound 0.0316 µM, first compound 0.949 µM) was 25.1% and the viability, T/C (second compound 0.0316 µM, first compound 3 µM) was 22.2%. For the same compound, the viability, T/C (second compound 0.1 µM, first compound 0.00949 µM) was 52.2%, the viability, T/C (second compound 0.1 µM, first compound 0.03 µM) was 27.6% and the viability, T/C (second compound 0.1 µM, first compound 0.0949 µM) was 31.1%. It also gave a viability, T/C (second compound 0.1 µM, first compound 0.3 µM) of 17.8%, a viability, T/C (second compound 0.1 µM, first compound 0.949 µM) of 18.7% and a viability, T/C (second compound 0.1 µM, first compound 3 µM) of 24.2%. For the same compound, the viability, T/C (second compound 0.316 µM, first compound 0.00949 µM) was 51.6%, the viability, T/C (second compound 0.316 µM, first compound 0.03 µM) was 31.1% and the viability, T/C (second compound 0.316 µM, first compound 0.0949 µM) was 21.7%. For the same compound, the viability, T/C (second compound 0.316 µM, first compound 0.3 µM) was 24.8%, the viability, T/C (second compound 0.316 µM, first compound 0.949 µM) was 34.9% and the viability, T/C (second compound 0.316 µM, first compound 3 µM) was 36%. For the same compound, the viability, T/C (second compound 1 µM, first compound 0.00949 µM) was 49.1%, the viability, T/C (second compound 1 µM, first compound 0.03 µM) was 26.9% and the viability, T/C (second compound 1 µM, first compound 0.0949 µM) was 23.5%. It also gave a viability, T/C (second compound 1 µM, first compound 0.3 µM) of 20%, a viability, T/C (second compound 1 µM, first compound 0.949 µM) of 23% and a viability, T/C (second compound 1 µM, first compound 3 µM) of 31.8%. It also gave a viability, T/C (second compound 3.16 µM, first compound 0.00949 µM) of 50.5%, a viability, T/C (second compound 3.16 µM, first compound 0.03 µM) of 43.2% and a viability, T/C (second compound 3.16 µM, first compound 0.0949 µM) of 27.8%. For the same compound, the viability, T/C (second compound 3.16 µM, first compound 0.3 µM) was 28%, the viability, T/C (second compound 3.16 µM, first compound 0.949 µM) was 20.7% and the viability, T/C (second compound 3.16 µM, first compound 3 µM) was 23.5%. It also gave a viability, T/C (second compound 10 µM, first compound 0.00949 µM) of 53.8%, a viability, T/C (second compound 10 µM, first compound 0.03 µM) of 31.9% and a viability, T/C (second compound 10 µM, first compound 0.0949 µM) of 27.2%. For the same compound, the viability, T/C (second compound 10 µM, first compound 0.3 µM) was 26.5%, the viability, T/C (second compound 10 µM, first compound 0.949 µM) was 28% and the viability, T/C (second compound 10 µM, first compound 3 µM) was 24.6%.
With `CC[C@@]1(O)C(=O)OCc2c1cc1n(c2=O)Cc2cc3c(CN(C)C)c(O)ccc3nc2-1` + Nc1ccc(C#CCN(C(=O)Cc2ncc(C(F)(F)F)cc2C(F)(F)F)c2ccc(F)cc2)nn1 the IC50 (second compound 0.0316 µM) was greater than 100 nM, the IC50 (second compound 0.1 µM) was greater than 100 nM and the IC50 (second compound 0.316 µM) was greater than 100 nM. It also gave an IC50 (second compound 1 µM) greater than 100 nM, an IC50 (second compound 3.16 µM) greater than 100 nM and an IC50 (second compound 10 µM) greater than 100 nM. It also gave a viability, T/C (second compound 0.0316 µM, first compound 0.000316 µM) of 104%, a viability, T/C (second compound 0.0316 µM, first compound 0.001 µM) of 99.7% and a viability, T/C (second compound 0.0316 µM, first compound 0.00316 µM) of 99.6%. For the same compound, the viability, T/C (second compound 0.0316 µM, first compound 0.01 µM) was 84.8%, the viability, T/C (second compound 0.0316 µM, first compound 0.0316 µM) was 84.5% and the viability, T/C (second compound 0.0316 µM, first compound 0.1 µM) was 66.1%. It also gave a viability, T/C (second compound 0.1 µM, first compound 0.000316 µM) of 107%, a viability, T/C (second compound 0.1 µM, first compound 0.001 µM) of 99.6% and a viability, T/C (second compound 0.1 µM, first compound 0.00316 µM) of 93.3%. It also gave a viability, T/C (second compound 0.1 µM, first compound 0.01 µM) of 101%, a viability, T/C (second compound 0.1 µM, first compound 0.0316 µM) of 85.7% and a viability, T/C (second compound 0.1 µM, first compound 0.1 µM) of 68.1%. The viability, T/C (second compound 0.316 µM, first compound 0.000316 µM) was 97.3%, the viability, T/C (second compound 0.316 µM, first compound 0.001 µM) was 101% and the viability, T/C (second compound 0.316 µM, first compound 0.00316 µM) was 89.6%. For the same compound, the viability, T/C (second compound 0.316 µM, first compound 0.01 µM) was 81.1%, the viability, T/C (second compound 0.316 µM, first compound 0.0316 µM) was 87.3% and the viability, T/C (second compound 0.316 µM, first compound 0.1 µM) was 80.9%. For the same compound, the viability, T/C (second compound 1 µM, first compound 0.000316 µM) was 90.2%, the viability, T/C (second compound 1 µM, first compound 0.001 µM) was 104% and the viability, T/C (second compound 1 µM, first compound 0.00316 µM) was 101%. The viability, T/C (second compound 1 µM, first compound 0.01 µM) was 100%, the viability, T/C (second compound 1 µM, first compound 0.0316 µM) was 81.5% and the viability, T/C (second compound 1 µM, first compound 0.1 µM) was 69.7%. It also gave a viability, T/C (second compound 3.16 µM, first compound 0.000316 µM) of 102%, a viability, T/C (second compound 3.16 µM, first compound 0.001 µM) of 99% and a viability, T/C (second compound 3.16 µM, first compound 0.00316 µM) of 126%. It also gave a viability, T/C (second compound 3.16 µM, first compound 0.01 µM) of 102%, a viability, T/C (second compound 3.16 µM, first compound 0.0316 µM) of 75.1% and a viability, T/C (second compound 3.16 µM, first compound 0.1 µM) of 76.6%. The viability, T/C (second compound 10 µM, first compound 0.000316 µM) was 122%, the viability, T/C (second compound 10 µM, first compound 0.001 µM) was 119% and the viability, T/C (second compound 10 µM, first compound 0.00316 µM) was 116%. The viability, T/C (second compound 10 µM, first compound 0.01 µM) was 95%, the viability, T/C (second compound 10 µM, first compound 0.0316 µM) was 91.5% and the viability, T/C (second compound 10 µM, first compound 0.1 µM) was 91%.
